{"source": "patent US20090202497A1", "about": "“USE OF GLP-1, GLP-1 DERIVATIVES OR GLP-1 FRAGMENTS FOR SKIN REGENERATION, STIMULATION OF HAIR GROWTH, OR TREATMENT OF DIABETES” (The General Hospital Corporation, priority 2005, published 2009)", "key": {"[1]": {"test_system": "shaved New Zealand white rabbits", "test": "Hair growth after intradermal peptide injection into the backs of shaved rabbits", "type": "in vivo, rabbit", "details": "for hair growth at the sites of injection: 100 μg intradermally in Freund's adjuvant, observed approximately 3-4 weeks after last injection", "experimental": "0.1 mg (100 μg) of the following peptides were injected intradermally into the backs of the shaved New Zealand white rabbits: synthetic mammalian GLP-1 (1-37), synthetic GLP-1 peptide fragment containing amino acid sequence 16-30 of GLP-1 (1-37) (amino acid numbering starts from histidine 1 of mammalian GLP-1 (1-37), synthetic rat GLP-2 peptide fragment containing amino acid sequence 9-24 of rat GLP-2 (amino acid numbering starts at histidine 1 of the rat GLP-2 sequence), rat IP-2 and synthetic mammalian glucagon. Sequences for rat GLP-2, rat IP-2 and mammalian glucagon are well known in the art, and are provided, for example, in U.S. Pat. No. 6,849,708, which is hereby wholly incorporated by reference (see, e.g., FIG. 1 of U.S. Pat. No. 6,849,708). The total amount of peptide was administered in 10-20 intradermal injections as an emulsification in Freund's adjuvant. Each peptide was tested in four rabbits, except for GLP-1 (1-37) that was injected into 5 rabbits. This amount of peptide was administered at 3 time intervals (100 μg at each time interval), one week apart. […] This effect was not observed in any of the rabbits that were immunized with any other of the above described peptides. […] The inventors observed enhanced hair growth upon intradermal injection of only GLP-1 (1-37) into rabbits."}, "[2]": {"test_system": "cultured skin-derived cells", "test": "cAMP levels in cell extracts after incubation with GLP-1", "type": "cell-based, mouse", "details": "incubation with GLP-1 for 5-30 min; data not shown", "experimental": "To determine whether GLP-1 receptors are actively coupled to signal transduction pathways in skin-derived cells, GLP-1 was added to the cells and examined for the activation of cell signaling. Three signaling pathways were investigated: Cyclic AMP, calcium influx, and mitogen activated protein kinase phosphorylation (MAPK).\nSince GLP-1Rs are classically recognized to couple to Gs and adenylyl cyclase to generate cAMP cell extracts were assayed for changes in levels of cAMP after their incubation with GLP-1 for 5-30 min."}, "[3]": {"test_system": "cultured skin-derived cells", "test": "cAMP luciferase reporter plasmid transfected into cultured skin-derived cells", "type": "cell-based, mouse", "details": "data not shown"}, "[4]": {"test_system": "cultured skin-derived cells", "test": "fura-2 loading and perforated patch clamp monitoring of membrane potential and current", "type": "cell-based, mouse", "details": "perforated patch clamp; data not shown", "excerpt": "The cells were next loaded with the Ca2+ indicator fura-2, and changes in membrane potential and current were monitored using the perforated patch clamp technique."}, "P42/44 MAPK (ERK1/2)": {"test_system": "P42/44 MAPK (ERK1/2)", "test": "Western immunoblot of ERK1/2 phosphorylation in primary skin cell cultures", "type": "cell-based, mouse", "details": "10 nM GLP-1", "experimental": "Cultures of C57B6/L mouse skin-derived cells were grown in 100 mm dishes to 80% confluence. Cultures were washed once with PBS and incubated with KRB buffer (115 mM NaCl, 5 mM KCl, 10 mM NaHCO3, 2.5 mM MgCl2, 2.5 mM CaCl2, 20 mM HEPES, pH 7.4) containing 0.5% bovine serum albumin (BSA) and 1 mM glucose at 37° C. for 1 hour. Cultures were then incubated with 10 nM GLP1 in the setting of no (0 mM), low (2.8 mM) or high (16.7 mM) glucose. Proteins were extracted with lysis buffer (50 mM Hepes pH 7.6, 160 mM NaCl, 20 mM sodium pyrophosphate, 20 mM glycerophosphate, 10 mM NaF, 2 mM sodium vanadate, […], and protease inhibitor cocktail). Ten (10) μg of protein per lane was electrophoresed in 4-12% Bis-Tris gels (Invitrogen Corp.) and transferred onto nitrocellulose membranes (Nitrobind, Osmotics, Inc., Minnetonka, Minn.) at 4° C. overnight. Membranes were blocked with 3% BSA in PBS with 0.2% Tween-80 for 1 hour at RT, incubated with mouse monoclonal anti-phospho-P42 MAPK antibody (1:2000 dilution) at 4° C. overnight, washed, and incubated with horseradish peroxidase-conjugated secondary antibody at RT for 1 hour. Immunostained proteins were detected using a the ECL chemiluminescence detection kit (Amersham Biosciences, Ltd., Buckinghamshire, England). […]"}, "mouse skin-derived cells": {"test_system": "mouse skin-derived cells", "test": "Differentiation of cultured skin-derived cells into insulin C-peptide producing cells (immunostaining)", "type": "cell-based", "details": "differentiation media with GLP-1 (10 nM) for 30 days", "experimental": "For in-vitro differentiation, after passaging for one month, mouse skin-derived cells were freshly plated and overlaid with differentiation medium composed of RPMI1640 containing 1% HEPES, 1% penicillin/streptomycin/fungizone, 1% pyruvate, 2% B-27 supplement, 2% FBS, […] MIN6 cells, provided by J. Miyazaki, were cultured as described (Miyazaki, J. et al., Endocrinology 127:126-32 (1990)).\nFor immunochemistry, 7 μm frozen sections were prepared from newborn C57BL/6 mouse skin, and skin-derived tissue culture cells were grown on coverslips. Tissues/coverslips were fixed with 4% paraformaldehyde at RT for 15 min. They were then rinsed with PBS containing 0.2% Triton X-100 and blocked with 3% normal donkey serum for 1 hour at RT. Tissues/coverslips were incubated with primary antibody at a 1:500 dilution at RT for 1 hour, rinsed with PBS containing 0.2% Triton X-100, and incubated with secondary (donkey) Cy2- or Cy3-conjugated antisera at RT for 1 hour. They were then washed with PBS and mounted with fluorescent mounting medium. […]\nMouse skin was minced and strained, and the resulting cells were used to establish primary cultures of mouse skin-derived cells. […] Immunoreactivity was detected with a Cy-3-conjugated secondary antibody."}}}
{"substance": "glucagon [mammalian glucagon, reference compound]", "values": [{"measurement": "hair growth at the sites of injection", "setting": "[1]; 3 times one week apart", "result": "not observed"}]}
{"substance": "glucagon-like peptide-1 [GLP-1 (1-37)]", "values": [{"measurement": "hair growth at the sites of injection", "setting": "[1]; 3 times one week apart", "result": "luxurious hair growth was observed only at the sites of injection"}, {"measurement": "rabbits showing hair growth at the sites of injection", "setting": "[1]; 100 μg intradermally, 3 times one week apart, approximately 3-4 weeks after last injection", "result": "4 out of 5"}, {"measurement": "hair growth in repeat experiments", "setting": "[1]; repeat experiments at different seasons of the year", "result": "variable results"}, {"measurement": "changes in levels of cAMP", "setting": "[2]", "result": "No changes in cAMP levels were observed"}, {"measurement": "activation of cAMP luciferase reporter", "setting": "[3]", "result": "failed to activate"}, {"measurement": "membrane current in response to peptide", "setting": "[4]", "result": "No membrane current was detected"}, {"measurement": "phosphorylation of ERK1/2 (time course)", "setting": "P42/44 MAPK (ERK1/2); 0, 5, 15 or 30 minutes, 0, 2.8 or 16.7 mM glucose", "result": "prompt phosphorylation of ERK1/2 after 5 minutes followed by defervescence of phosphorylation at 15 and rephosphorylation at 30 min"}, {"measurement": "glucose dependence of ERK1/2 phosphorylation", "setting": "P42/44 MAPK (ERK1/2); no, 2.8 mM or 16.7 mM glucose", "result": "glucose-dependent"}, {"measurement": "cytoplasmic staining of insulin C-peptide", "setting": "mouse skin-derived cells", "result": "Many of the cells showed cytoplasmic staining of C-peptide"}]}
{"substance": "rat GLP-2 peptide fragment containing amino acid sequence 9-24 of rat GLP-2: synthetic rat GLP-2 peptide fragment, residues 9-24, numbering from histidine 1 of rat GLP-2 (EMNTILDNLATRDFIN; Glucagon-like peptide 2; UniProt P06883 154-169, looked up, fragment) [reference compound]", "values": [{"measurement": "hair growth at the sites of injection", "setting": "[1]; 3 times one week apart", "result": "not observed"}]}
{"substance": "GLP-1 peptide fragment containing amino acid sequence 16-30 of GLP-1 (1-37): synthetic GLP-1 peptide fragment containing amino acid sequence 16-30 of GLP-1 (1-37) (VSSYLEGQAAKEFIA; Glucagon-like peptide 1; UniProt P01275 107-121, looked up, fragment)", "values": [{"measurement": "hair growth at the sites of injection", "setting": "[1]; 3 times one week apart", "result": "not observed"}]}
